Experimental findings from the NIST ThermoML archive (doi:10.1021/je201334p) are described below.

Numbers after ± are expanded uncertainties.

A short description of data set [1]: refractive index (Na D-line) (dimensionless). The note with it: Liquid, Standard Abbe refractometry.
The nature of data set [2]: molar heat capacity at constant pressure. The note with it: 101.33 kPa, Liquid, Small sample (50 mg) DSC.
The conditions of data set [3]: 101 kPa, Liquid; for speed of sound: Sing-around technique in a fixed-path interferometer; for mass density: Vibrating tube method.

With `CCCCCCn1cc[n+](C)c1.N#CN=C=[N-]` [1-hexyl-3-methylimidazolium dicyanamide], the refractive index in data set [1] (288.15 K, 101 kPa) came out at 1.50729 ± 0.00079; in data set [1] (288.15 K, 101.33 kPa), 1.50729 ± 0.00079; in data set [1] (298.15 K, 101 kPa) it was 1.50415 ± 0.00079; in data set [1] (298.15 K, 101.33 kPa), 1.50415 ± 0.00079; in data set [1] (308.15 K, 101 kPa), 1.501 ± 0.00079; in data set [1] (308.15 K, 101.33 kPa), 1.501 ± 0.00079. The “molar heat capacity at constant pressure” value was determined as 510 ± 10 J/K/mol in data set [2] (288.15 K), 534 ± 11 J/K/mol in data set [2] (298.15 K) and 548 ± 11 J/K/mol in data set [2] (308.15 K). Also, the speed of sound in data set [3] (288.15 K) is on record as 1713.4 ± 3.2 m/s; in data set [3] (298.15 K), 1687.7 ± 3.2 m/s; in data set [3] (308.15 K) it was 1662.7 ± 3.2 m/s. In addition, the mass density is listed as 1034.76 ± 2.6 kg/m3 in data set [3] (288.15 K), 1028.56 ± 2.6 kg/m3 in data set [3] (298.15 K) and 1022.4 ± 2.5 kg/m3 in data set [3] (308.15 K).

`CCCC[n+]1cccc(C)c1.O=S(=O)([O-])C(F)(F)F` [1-butyl-3-methylpyridinium trifluoromethanesulfonate]: the refractive index in data set [1] (288.15 K, 101 kPa) was 1.46446 ± 0.00053; in data set [1] (288.15 K, 101.33 kPa), 1.46446 ± 0.00053; in data set [1] (298.15 K, 101 kPa) it was 1.46155 ± 0.00053; in data set [1] (298.15 K, 101.33 kPa), 1.46155 ± 0.00053; in data set [1] (308.15 K, 101 kPa), 1.45868 ± 0.00053; in data set [1] (308.15 K, 101.33 kPa) it was 1.45868 ± 0.00053. Further, the “molar heat capacity at constant pressure” value in data set [2] (288.15 K) turned out to be 496 ± 10 J/K/mol; in data set [2] (298.15 K) it was 520 ± 10 J/K/mol; in data set [2] (308.15 K), 535 ± 11 J/K/mol. The speed of sound in data set [3] (288.15 K) was found to be 1436.1 ± 1.4 m/s; in data set [3] (298.15 K), 1412.3 ± 1.4 m/s; in data set [3] (308.15 K), 1389.6 ± 1.4 m/s. Further, the mass density in data set [3] (288.15 K) is listed as 1287.07 ± 0.61 kg/m3; in data set [3] (298.15 K), 1279.41 ± 0.6 kg/m3; in data set [3] (308.15 K) it was 1271.8 ± 0.59 kg/m3.

With `CCOS(=O)(=O)[O-].CCc1cccc[n+]1CC` [1,2-diethylpyridinium ethylsulfate], the refractive index in data set [1] (288.15 K, 101 kPa) came to 1.51631 ± 0.00053; in data set [1] (288.15 K, 101.33 kPa) it was 1.51631 ± 0.00053; in data set [1] (298.15 K, 101 kPa), 1.5135 ± 0.00053; in data set [1] (298.15 K, 101.33 kPa), 1.5135 ± 0.00053; in data set [1] (308.15 K, 101 kPa), 1.51067 ± 0.00053; in data set [1] (308.15 K, 101.33 kPa), 1.51067 ± 0.00053. Further, the “molar heat capacity at constant pressure” value in data set [2] (288.15 K) stood at 399 ± 8 J/K/mol; in data set [2] (298.15 K) it was 412 ± 8 J/K/mol; in data set [2] (308.15 K), 420 ± 8 J/K/mol. Besides, the speed of sound in data set [3] (288.15 K) came out at 1774.5 ± 1.5 m/s; in data set [3] (298.15 K), 1745.2 ± 1.5 m/s; in data set [3] (308.15 K), 1718.4 ± 1.5 m/s. The mass density in data set [3] (288.15 K) was 1225.93 ± 0.54 kg/m3; in data set [3] (298.15 K) it was 1219.26 ± 0.53 kg/m3; in data set [3] (308.15 K), 1212.65 ± 0.52 kg/m3.

As usually defined, the refractive index is the speed of light in vacuum divided by its phase velocity in the sample. A word on the speed of sound: it is how fast a sound wave travels through the sample. The term mass density denotes the mass of a sample divided by its volume.
